Legend:
Type in all cases: physicochemical
[1] = Stability of the crystal structure (lattice) on heating and storage
Description: The crystal structure is stable up to approx. 80° C.

[2] = Lattice stability on contact with solvents; conditions: contact with solvents such as water, ethanol, acetone or toluene
[3] = Solubility behaviour of the crystals; conditions: finely granular crystals
Description: The modifications B and C can be employed for specific pharmaceutical forms such as capsules and dry ampoules.

In the case of `CCOC(=O)Nc1ccc(NCc2ccc(F)cc2)cc1N` [modification A, 2-amino-4-(4-fluorobenzylamino)-1-ethoxycarbonylaminobenzene], the “lattice changes after storage” value ([1]; relatively long storage at temperatures up to 60° C. and relative atmospheric humidities up to 70%) is reported as “no lattice changes are observed”, the “crystal structure is stable up to (temperature)” value ([1]; solid state, temperature limit of lattice stability) is reported as “approx. 80 °C” and the “lattice change on contact with solvents” value [2] is reported as “no lattice change”.
With `CCOC(=O)Nc1ccc(NCc2ccc(F)cc2)cc1N` [modification C, 2-amino-4-(4-fluorobenzylamino)-1-ethoxycarbonylaminobenzene] the “speed of dissolution of crystals” value [3] was “particularly rapidly soluble”.
